This is an account of results in patent US9834571B2, “Compounds for inhibiting cell proliferation in EGFR-driven cancers” (ARIAD Pharmaceuticals, Inc., priority 2012, dated 2017).

Where only a bound is given, the exact number is not on record here.

Assay [1] addresses human EGFR (native sequence) (Homo sapiens, UniProt P00533). Kind of assay: Kinase inhibitory activity against human EGFR (native sequence). It is filed as biochemical. The note with it: 10 pt curves, 3 μM top concentration, 10 μM ATP; read-out: IC50 for kinase inhibition, EGFR. In a few lines:
(§1)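 Kinase inhibition was measured against native human EGFR and the L858R and L858R/T790M mutants. Compounds were run as 10-point curves in singlicate from a 3 μM top concentration, with 10 μM ATP.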

The target of assay [2] is EGFR L858R (Homo sapiens, UniProt P00533, L858R). Kind of assay: Kinase inhibitory activity against EGFR bearing the L858R mutation. The note with it: 10 pt curves, 3 μM top concentration, 10 μM ATP; read-out: IC50 for kinase inhibition, EGFR L858R. It is filed as biochemical. In a few lines: as §1
For assay [3], the target named is EGFR L858R/T790M (Homo sapiens, UniProt P00533, L858R/T790M). As to the kind of experiment: Kinase inhibitory activity against EGFR bearing the L858R/T790M double mutation. It is filed as biochemical. Conditions: 10 pt curves, 3 μM top concentration, 10 μM ATP; read-out: IC50 for kinase inhibition, EGFR L858R T790M. The method, boiled down:
as §1

The target of assay [4] is T1, BaF3 cells expressing the target EGFR mutations (Homo sapiens, UniProt P00533, T790M, cells depend on it, form not given).
T1 construct: IC50, BAF3 EGFR DEL T790M PURO POOL; other: BAF3 EGFR DEL T790M PURO POOL cells, MTT; other: BAF3 EGFR DEL T790M PURO POOL cells; MTT
As to the kind of experiment: Antiproliferative activity (MTT) against BaF3 cells expressing the target EGFR mutations. It is filed as cell-based. Conditions: BAF3 EGFR DEL T790M PURO POOL cells, read-out: IC50, BAF3 EGFR DEL T790M PURO POOL. In a few lines:
(§2)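 Growth inhibition of EGFR-mutant BaF3 cells was assessed with an MTT assay. A BaF3 line expressing wildtype EGFR served as comparator.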

For assay [5], the target named is T2, BaF3 cells expressing the target EGFR mutations (Homo sapiens, UniProt P00533, T790M/L858R, cells depend on it).
T2 construct: IC50, BAF3 EGFR L858R-T790M PURO POOL; other: BAF3 EGFR L858R-T790M PURO POOL cells, MTT; IC50, BAF3 EGFR L858R-T790M PURO POOL; other: BAF3 EGFR L858R-T790M PURO POOL cells; MTT
Described as above. It is filed as cell-based. Conditions: BAF3 EGFR L858R-T790M PURO POOL cells, read-out: IC50, BAF3 EGFR L858R-T790M PURO POOL. The method, boiled down:
as §2

The test system of assay [6] is BaF3 cells expressing wildtype EGFR. As to the kind of experiment: Antiproliferative activity (MTT) against control BaF3 cells expressing wildtype EGFR. It is filed as cell-based. The note with it: Mus musculus, BAF3 parental cells. The method, boiled down:
as §2

Sequence of human EGFR (native sequence) (P00533 25-1210): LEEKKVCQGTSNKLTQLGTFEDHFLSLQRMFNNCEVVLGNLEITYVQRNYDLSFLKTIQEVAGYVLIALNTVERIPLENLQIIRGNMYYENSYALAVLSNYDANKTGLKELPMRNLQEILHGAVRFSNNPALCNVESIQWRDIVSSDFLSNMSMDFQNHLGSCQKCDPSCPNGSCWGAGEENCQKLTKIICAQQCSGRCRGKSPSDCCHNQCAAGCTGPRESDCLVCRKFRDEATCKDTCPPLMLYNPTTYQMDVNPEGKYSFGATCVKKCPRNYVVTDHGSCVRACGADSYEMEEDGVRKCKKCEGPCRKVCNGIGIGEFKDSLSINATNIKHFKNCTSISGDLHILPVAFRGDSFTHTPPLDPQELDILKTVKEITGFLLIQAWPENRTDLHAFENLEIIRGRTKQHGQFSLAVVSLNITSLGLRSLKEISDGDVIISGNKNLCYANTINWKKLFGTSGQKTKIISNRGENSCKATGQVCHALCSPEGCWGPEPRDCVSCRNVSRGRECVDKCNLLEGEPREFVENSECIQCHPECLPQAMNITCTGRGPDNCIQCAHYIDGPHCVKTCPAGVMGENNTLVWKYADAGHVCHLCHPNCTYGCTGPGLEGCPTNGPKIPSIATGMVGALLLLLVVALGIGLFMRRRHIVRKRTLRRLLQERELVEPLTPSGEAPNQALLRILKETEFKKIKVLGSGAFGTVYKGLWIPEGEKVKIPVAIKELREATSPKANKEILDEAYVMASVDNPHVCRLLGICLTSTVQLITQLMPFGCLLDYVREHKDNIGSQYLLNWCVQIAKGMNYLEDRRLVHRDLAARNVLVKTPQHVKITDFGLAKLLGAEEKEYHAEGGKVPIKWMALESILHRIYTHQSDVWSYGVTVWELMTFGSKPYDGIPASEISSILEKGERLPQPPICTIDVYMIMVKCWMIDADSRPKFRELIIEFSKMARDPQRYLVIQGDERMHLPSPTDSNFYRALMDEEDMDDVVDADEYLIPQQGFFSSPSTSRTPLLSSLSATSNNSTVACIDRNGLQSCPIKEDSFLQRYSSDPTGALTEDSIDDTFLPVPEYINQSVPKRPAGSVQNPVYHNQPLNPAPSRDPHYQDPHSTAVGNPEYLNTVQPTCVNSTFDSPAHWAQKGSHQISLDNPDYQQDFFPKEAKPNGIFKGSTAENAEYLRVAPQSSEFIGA
Sequence of EGFR L858R/T790M (P00533 25-1210 T790M/L858R): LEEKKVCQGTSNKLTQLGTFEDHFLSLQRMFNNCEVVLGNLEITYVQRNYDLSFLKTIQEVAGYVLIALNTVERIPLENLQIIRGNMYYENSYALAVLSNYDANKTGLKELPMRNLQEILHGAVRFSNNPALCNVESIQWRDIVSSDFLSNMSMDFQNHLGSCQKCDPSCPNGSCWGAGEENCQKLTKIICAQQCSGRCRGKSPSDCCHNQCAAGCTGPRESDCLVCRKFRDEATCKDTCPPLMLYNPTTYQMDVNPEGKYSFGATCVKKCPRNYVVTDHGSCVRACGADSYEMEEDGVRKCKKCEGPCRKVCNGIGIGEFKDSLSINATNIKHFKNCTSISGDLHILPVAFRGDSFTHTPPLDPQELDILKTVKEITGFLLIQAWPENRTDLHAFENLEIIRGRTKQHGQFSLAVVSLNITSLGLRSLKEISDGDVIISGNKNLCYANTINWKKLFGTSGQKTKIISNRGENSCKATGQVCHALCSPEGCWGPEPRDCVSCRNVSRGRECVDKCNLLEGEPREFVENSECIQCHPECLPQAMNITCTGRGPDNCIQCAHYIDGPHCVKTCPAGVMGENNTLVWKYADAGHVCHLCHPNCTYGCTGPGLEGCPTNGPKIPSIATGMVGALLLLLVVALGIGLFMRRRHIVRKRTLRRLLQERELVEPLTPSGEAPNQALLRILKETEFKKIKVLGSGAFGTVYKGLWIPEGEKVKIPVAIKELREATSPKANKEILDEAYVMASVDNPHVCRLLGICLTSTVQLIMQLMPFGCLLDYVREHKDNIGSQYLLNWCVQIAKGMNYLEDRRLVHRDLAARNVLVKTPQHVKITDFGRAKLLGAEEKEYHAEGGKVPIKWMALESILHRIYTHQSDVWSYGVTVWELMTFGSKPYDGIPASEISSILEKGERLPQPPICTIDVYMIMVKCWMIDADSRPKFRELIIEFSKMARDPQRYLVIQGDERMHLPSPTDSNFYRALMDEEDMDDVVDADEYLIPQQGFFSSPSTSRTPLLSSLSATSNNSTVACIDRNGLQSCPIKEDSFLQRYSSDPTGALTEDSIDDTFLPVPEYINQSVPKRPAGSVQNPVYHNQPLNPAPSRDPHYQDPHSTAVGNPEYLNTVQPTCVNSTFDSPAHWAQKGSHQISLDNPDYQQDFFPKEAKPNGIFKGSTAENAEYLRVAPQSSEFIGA
T1 sequence (P00533 with tags, fused parts or gaps DEL746-750/T790M, form open): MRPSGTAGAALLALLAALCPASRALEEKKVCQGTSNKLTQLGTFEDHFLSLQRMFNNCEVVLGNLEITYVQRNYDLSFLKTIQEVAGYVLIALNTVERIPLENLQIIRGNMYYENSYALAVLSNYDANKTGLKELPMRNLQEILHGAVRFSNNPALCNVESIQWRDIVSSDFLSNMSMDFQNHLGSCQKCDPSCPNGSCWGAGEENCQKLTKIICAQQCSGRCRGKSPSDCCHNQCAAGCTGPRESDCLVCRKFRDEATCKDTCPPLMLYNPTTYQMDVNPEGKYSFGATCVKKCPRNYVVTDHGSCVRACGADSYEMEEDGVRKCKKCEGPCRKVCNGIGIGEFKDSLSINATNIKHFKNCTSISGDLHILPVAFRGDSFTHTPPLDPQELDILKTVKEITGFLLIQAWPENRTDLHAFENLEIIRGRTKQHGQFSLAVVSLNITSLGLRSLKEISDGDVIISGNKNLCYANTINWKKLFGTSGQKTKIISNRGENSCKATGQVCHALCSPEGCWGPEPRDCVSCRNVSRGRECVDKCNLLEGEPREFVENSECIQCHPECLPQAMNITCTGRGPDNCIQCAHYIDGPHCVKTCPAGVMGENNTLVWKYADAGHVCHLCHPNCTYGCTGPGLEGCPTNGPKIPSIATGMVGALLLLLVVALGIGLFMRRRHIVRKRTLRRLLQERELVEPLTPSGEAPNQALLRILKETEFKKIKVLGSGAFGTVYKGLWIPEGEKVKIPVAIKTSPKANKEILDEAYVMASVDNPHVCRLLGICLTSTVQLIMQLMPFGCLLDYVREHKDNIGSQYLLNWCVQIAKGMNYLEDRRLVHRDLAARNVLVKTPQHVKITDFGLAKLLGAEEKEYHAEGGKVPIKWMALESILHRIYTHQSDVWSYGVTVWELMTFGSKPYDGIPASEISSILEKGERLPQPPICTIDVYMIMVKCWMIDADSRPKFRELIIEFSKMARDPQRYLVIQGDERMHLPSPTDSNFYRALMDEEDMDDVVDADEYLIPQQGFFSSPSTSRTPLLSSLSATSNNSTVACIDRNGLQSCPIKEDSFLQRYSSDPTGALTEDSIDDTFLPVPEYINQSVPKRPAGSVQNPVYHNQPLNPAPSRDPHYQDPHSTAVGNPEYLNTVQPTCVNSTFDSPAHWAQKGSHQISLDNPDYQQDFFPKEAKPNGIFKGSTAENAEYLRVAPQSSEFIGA
T2 sequence (P00533 whole entry T790M/L858R): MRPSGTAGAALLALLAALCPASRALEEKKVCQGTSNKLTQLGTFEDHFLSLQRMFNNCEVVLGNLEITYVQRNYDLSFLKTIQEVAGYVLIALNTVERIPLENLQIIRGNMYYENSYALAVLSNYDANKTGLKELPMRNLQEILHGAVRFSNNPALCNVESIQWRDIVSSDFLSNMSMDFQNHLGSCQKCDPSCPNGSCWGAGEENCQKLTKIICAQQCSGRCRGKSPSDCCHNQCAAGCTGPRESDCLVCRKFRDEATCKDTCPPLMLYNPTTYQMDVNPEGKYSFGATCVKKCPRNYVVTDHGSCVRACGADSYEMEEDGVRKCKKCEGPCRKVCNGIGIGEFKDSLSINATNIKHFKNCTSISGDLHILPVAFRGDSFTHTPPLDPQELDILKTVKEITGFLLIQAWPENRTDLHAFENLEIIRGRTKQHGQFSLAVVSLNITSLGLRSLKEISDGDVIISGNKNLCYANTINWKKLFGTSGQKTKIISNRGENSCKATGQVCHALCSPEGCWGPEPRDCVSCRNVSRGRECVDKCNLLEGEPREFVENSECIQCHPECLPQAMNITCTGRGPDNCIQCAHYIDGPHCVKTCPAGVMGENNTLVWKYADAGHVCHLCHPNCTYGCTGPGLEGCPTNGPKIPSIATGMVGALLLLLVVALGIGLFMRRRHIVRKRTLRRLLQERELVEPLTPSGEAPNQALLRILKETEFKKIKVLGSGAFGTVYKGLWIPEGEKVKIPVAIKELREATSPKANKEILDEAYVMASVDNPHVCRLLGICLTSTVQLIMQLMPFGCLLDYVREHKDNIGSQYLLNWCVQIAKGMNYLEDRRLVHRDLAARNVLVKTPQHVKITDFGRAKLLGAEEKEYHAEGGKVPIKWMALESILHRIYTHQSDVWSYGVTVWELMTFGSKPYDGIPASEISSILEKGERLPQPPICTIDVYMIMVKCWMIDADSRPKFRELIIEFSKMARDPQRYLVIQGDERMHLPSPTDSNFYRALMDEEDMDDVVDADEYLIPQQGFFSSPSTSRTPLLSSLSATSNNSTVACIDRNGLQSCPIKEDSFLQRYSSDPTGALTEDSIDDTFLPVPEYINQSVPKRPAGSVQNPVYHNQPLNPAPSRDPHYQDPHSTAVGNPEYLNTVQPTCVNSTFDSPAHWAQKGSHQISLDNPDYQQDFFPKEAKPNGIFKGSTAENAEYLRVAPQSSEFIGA

On to `COc1cc(N2CCCC2)c(NC(=O)C#CCCN2CCN(C)CC2)cc1Nc1ncc(Cl)c(Nc2ccccc2P(C)(C)=O)n1` [Example 119, N-(5-((5-chloro-4-((2-(dimethylphosphoryl)phenyl)amino)pyrimidin-2-yl)amino)-4-methoxy-2-(pyrrolidin-1-yl)phenyl)-5-(4-methylpiperazin-1-yl)pent-2-ynamide], for which the 50% inhibitory concentration (IC50) (usually the point on the concentration scale where inhibition reaches its midpoint) in assay [1] was less than 50 nM; in assay [2], less than 50 nM; in assay [3], less than 50 nM; in assay [6], not below 250 nM. Moreover, the GI50 in assay [4] and in assay [5] was 101 to 250 nM throughout.
As to `C=CC(=O)Nc1cc(Nc2ncc(C3CC3)c(Nc3ccccc3P(C)(C)=O)n2)c(OC)cc1N(C)CCN(CC)CC` [Example 120, N-(5-((5-cyclopropyl-4-((2-(dimethylphosphoryl)phenyl)amino)pyrimidin-2-yl)amino)-2-((2-(diethylamino)ethyl)(methyl)amino)-4-methoxyphenyl)acrylamide], the IC50 in assay [1] was less than 50 nM; in assay [2], less than 50 nM; in assay [3], less than 50 nM; in assay [6], not below 250 nM. Moreover, the GI50 in assay [4] and in assay [5] was less than 50 nM throughout.
As for `C=CC(=O)Nc1cc(Nc2ncc(Cl)c(Nc3ccccc3P(C)(C)=O)n2)c(OC)cc1OC(CF)CN(CC)CC` (stereo not drawn) [Example 121, N-(5-((5-chloro-4-((2-(dimethylphosphoryl)phenyl)amino)pyrimidin-2-yl)amino)-2-((1-(diethylamino)-3-fluoropropan-2-yl)oxy)-4-methoxyphenyl)acrylamide], the IC50 in assay [1] is less than 50 nM; in assay [2] it was less than 50 nM; in assay [3] it was less than 50 nM; in assay [6] it was not below 250 nM. For the same compound, the GI50 in assay [4] and in assay [5] was less than 50 nM each time.
`COCC1CCCN1CCC#CC(=O)Nc1cc(Nc2ncc(Cl)c(Nc3ccccc3P(C)(C)=O)n2)c(OC)cc1N1CCOCC1` (stereo not drawn) [Example 122, N-(5-((5-chloro-4-((2-(dimethylphosphoryl)phenyl)amino)pyrimidin-2-yl)amino)-4-methoxy-2-morpholinophenyl)-5-(2-(methoxymethyl)pyrrolidin-1-yl)pent-2-ynamide]: the IC50 in assay [1] is less than 50 nM; in assay [2] it was less than 50 nM; in assay [3], less than 50 nM; in assay [6], not below 250 nM. Besides, the GI50 in assay [4] and in assay [5] was less than 50 nM in each case.
On to `C=CC(=O)Nc1cc(Nc2ncc(Cl)c(Nc3ccccc3P(C)(C)=O)n2)c(OC)cc1OC1CCCN(CCOC)C1` (stereo not drawn) [Example 123, N-(5-((5-chloro-4-((2-(dimethylphosphoryl)phenyl)amino)pyrimidin-2-yl)amino)-4-methoxy-2-((1-(2-methoxyethyl)piperidin-3-yl)oxy)phenyl)acrylamide], for which the half-inhibitory concentration (IC50) in assay [1] is less than 50 nM; in assay [2], less than 50 nM; in assay [3] it was less than 50 nM; in assay [6] it was not below 250 nM. The GI50 in assay [4] and in assay [5] was less than 50 nM throughout.
`C=CC(=O)Nc1cc(Nc2ncc(Cl)c(Nc3ccccc3P(C)(C)=O)n2)c(OC)cc1C#CCN(C)C` [Example 124, N-(5-((5-chloro-4-((2-(dimethylphosphoryl)phenyl)amino)pyrimidin-2-yl)amino)-2-(3-(dimethylamino)prop-1-yn-1-yl)-4-methoxyphenyl)acrylamide]: the half-maximal inhibitory concentration (IC50) was less than 50 nM in assay [1], less than 50 nM in assay [2], less than 50 nM in assay [3] and not below 250 nM in assay [6]. For the same compound, the GI50 in assay [4] and in assay [5] was less than 50 nM each time.
With `C=CC(=O)Nc1ccc(OC)c(Nc2ncc(Cl)c(Nc3ccc(OCCN(C)C)cc3P(C)(C)=O)n2)c1` [Example 125, N-(3-((5-chloro-4-((4-(2-(dimethylamino)ethoxy)-2-(dimethylphosphoryl)phenyl)amino)pyrimidin-2-yl)amino)-4-methoxyphenyl)acrylamide], the IC50 in assay [1] was less than 50 nM; in assay [2], less than 50 nM; in assay [3] it was less than 50 nM; in assay [6], not below 250 nM. Besides, the GI50 in assay [4] and in assay [5] was less than 50 nM throughout.
For the compound `C=CC(=O)Nc1ccc(OC)c(Nc2ncc(Cl)c(Nc3ccc(OCCCN(C)C)cc3P(C)(C)=O)n2)c1` [Example 126, N-(3-((5-chloro-4-((4-(3-(dimethylamino)propoxy)-2-(dimethylphosphoryl)phenyl)amino)pyrimidin-2-yl)amino)-4-methoxyphenyl)acrylamide], the IC50 was less than 50 nM in assay [1], less than 50 nM in assay [2], less than 50 nM in assay [3] and not below 250 nM in assay [6]. Also, the GI50 in assay [4] and in assay [5] was less than 50 nM each time.
Consider `C=CC(=O)Nc1cc(Nc2ncc(Cl)c(Nc3ccccc3P(C)(C)=O)n2)c(OC)cc1C#CCCN(C)C` [Example 128, N-(5-((5-chloro-4-((2-(dimethylphosphoryl)phenyl)amino)pyrimidin-2-yl)amino)-2-(4-(dimethylamino)but-1-yn-1-yl)-4-methoxyphenyl)acrylamide], for which the half-maximal inhibitory concentration (IC50) in assay [1] is less than 50 nM; in assay [2], less than 50 nM; in assay [3], less than 50 nM; in assay [6], not below 250 nM. Besides, the GI50 in assay [4] and in assay [5] was less than 50 nM in each case.
On to `C=CC(=O)Nc1cc(Nc2ncc(Cl)c(Nc3ccccc3P(C)(C)=O)n2)c(OC)cc1O[C@@H](COC)CN(C)C` [Example 129, (R)-N-(5-((5-chloro-4-((2-(dimethylphosphoryl)phenyl)amino)pyrimidin-2-yl)amino)-2-((1-(dimethylamino)-3-methoxypropan-2-yl)oxy)-4-methoxyphenyl)acrylamide], for which the half-inhibitory concentration (IC50) was less than 50 nM in assay [1], less than 50 nM in assay [2], less than 50 nM in assay [3] and not below 250 nM in assay [6]. In addition, the GI50 in assay [4] and in assay [5] was less than 50 nM in each case.
With `C=CC(=O)Nc1cc(Nc2ncc(Cl)c(Nc3ccccc3P(C)(C)=O)n2)c(OC)cc1OC(COC)CN(C)C` (stereo not drawn) [Example 130, N-(5-((5-chloro-4-((2-(dimethylphosphoryl)phenyl)amino)pyrimidin-2-yl)amino)-2-((1-(dimethylamino)-3-methoxypropan-2-yl)oxy)-4-methoxyphenyl)acrylamide], the 50% inhibitory concentration (IC50) is less than 50 nM in assay [1], less than 50 nM in assay [2], less than 50 nM in assay [3] and not below 250 nM in assay [6]. In addition, the GI50 in assay [4] and in assay [5] was less than 50 nM each time.
Turning to `C=CC(=O)Nc1ccc(OC)c(Nc2ncc(OC)c(Nc3ccccc3P(C)(C)=O)n2)c1` [Example 131, N-(3-((4-((2-(dimethylphosphoryl)phenyl)amino)-5-methoxypyrimidin-2-yl)amino)-4-methoxyphenyl)acrylamide], the IC50 in assay [1] was 50 to 100 nM; in assay [2], less than 50 nM; in assay [3], less than 50 nM; in assay [6] it was not below 250 nM. The values for the GI50 in assay [4] and in assay [5] were less than 50 nM and 50 to 100 nM, respectively.
As to `C=C(Cl)C(=O)Nc1ccc(OC)c(Nc2ncc(Cl)c(Nc3ccccc3P(C)(C)=O)n2)c1` [Example 132, 2-chloro-N-(3-((5-chloro-4-((2-(dimethylphosphoryl)phenyl)amino)pyrimidin-2-yl)amino)-4-methoxyphenyl)acrylamide], the concentration for half-maximal inhibition (IC50) in assay [1] is less than 50 nM; in assay [2] it was less than 50 nM; in assay [3] it was less than 50 nM; in assay [6] it was not below 250 nM. The GI50 is less than 50 nM in assay [4] and 101 to 250 nM in assay [5].
For `C=CC(=O)Nc1cc(Nc2ncc(Cl)c(Nc3ccccc3P(C)(C)=O)n2)c(OC)cc1C` [Example 133, N-(5-((5-chloro-4-((2-(dimethylphosphoryl)phenyl)amino)pyrimidin-2-yl)amino)-4-methoxy-2-methylphenyl)acrylamide], the IC50 was less than 50 nM in assay [1], less than 50 nM in assay [2], less than 50 nM in assay [3] and not below 250 nM in assay [6]. For the same compound, the GI50 in assay [4] and in assay [5] was less than 50 nM each time.
Regarding `C=CC(=O)Nc1ccc(OC(F)(F)F)c(Nc2ncc(Cl)c(Nc3ccccc3P(C)(C)=O)n2)c1` [Example 134, N-(3-((5-chloro-4-((2-(dimethylphosphoryl)phenyl)amino)pyrimidin-2-yl)amino)-4-(trifluoromethoxy)phenyl)acrylamide], the concentration for half-maximal inhibition (IC50) in assay [1] was less than 50 nM; in assay [2] it was less than 50 nM; in assay [3], less than 50 nM; in assay [6], not below 250 nM. The GI50 in assay [4] and in assay [5] was less than 50 nM each time.
